Measured values published in ChEMBL document CHEMBL3046256, “Sesquiterpene lactones: antispasmodic principles of the freshwater algae Hydrodictyon reticulatum” (Med Chem Res, 2012).

Experiments:
Ileum = assay: Ratio IC50 for papaverine to IC50 for compound for antispasmodic activity in rat ileum; format: functional
Jejunum = assay: Antispasmodic activity in Oryctolagus cuniculus (rabbit) jejunum assessed as K+-induced contraction at 1 mg/ml; format: functional

| SMILES | Ratio IC50 (Ileum) | inhibition at 1000 µg/mL (Jejunum) [%] |
| --- | --- | --- |
| C=C1CC[C@H]2O[C@]2(C)CC[C@@H]2[C@@H]1CC2(C)C [(-)-CARYOPHYLLENE OXIDE] | 0.071 | 31.6 |
| CO[C@]1(C)C[C@H](O)[C@@H]2[C@H](OC(=O)[C@H]2C)[C@@H]2[C@H]1C[C@@H](O)[C@@]2(C)O | 0.09 | 43.4 |
| COc1ccc(CCN(C)CCCC(C#N)(c2ccc(OC)c(OC)c2)C(C)C)cc1OC (stereo not drawn) [VERAPAMIL] |  | 67.5 |
| COc1ccc(Cc2nccc3cc(OC)c(OC)cc23)cc1OC [PAPAVERINE] | 1 |  |
| CO[C@]1(C)C[C@H](O)[C@@H]2[C@H](OC(=O)[C@H]2C)[C@@H]2[C@H]1CC[C@@]2(C)O | 0.083 | 39.5 |
